From PMC4947994 (Acta Naturae, 2016)
Values belong to the compound of their own block, whether it stands above or below them.

Key:
HCC1937 cells [1] = assay: Cytotoxicity: Sub-G1 population by flow cytometry; type: cell-based, human; conditions: for Sub-G1 population: 72 h
Description: (§1) A BRCA1-deficient human breast cancer line HCC1937 (ATCC CRL-2336) was cultured in DMEM supplemented with 10% heat-inactivated fetal bovine serum, penicillin/streptomycin (100 U/ml), and pyruvate (0,11 mg/ml) at 37°C in 20% O2 humidified atmosphere. The cells were maintained in a logarithmic growth phase for all experiments.
(§2) To perform cell cycle analysis, the cells were then harvested after 72 hours, fixed with 70% EtOH (final concentration) for 60 min on ice, rinsed in PBS, and stained in a 500 •µl solution containing 50 •µg/ml propidium iodide and 25 •µg/ml RNase A for 15 min. Data were acquired by a BD FACS CantoII flow cytometer (BD Biosciences) and analyzed using the FACSDiva software. The cleavage of the fluorogenic peptide substrate […] was measured using a fluorometric assay. Upon treatment with cytotoxic agents, the cells were incubated for 48 hours, then harvested and washed with PBS. After centrifugation, they were re-suspended in PBS at a concentration of 2 × 10^6 cells/100 μl. Then, 25 μl of the suspension was added to a 96-well plate and mixed with a DEVD peptide substrate dissolved in a standard reaction buffer (100 mM HEPES, 10% sucrose, 5 mM DTT, 0.001% NP- 40, and 0.1% CHAPS, pH 7.2). Cleavage of the fluorogenic peptide substrate was monitored by AMC liberation in a VarioScan Flash multimode detector (Thermo Scientific) using 380 nm excitation and 460 nm emission wavelengths. Measurements were done in at least two independent experiments.

PARP = tested on: PARP; parameters: method as in PMID 11149897, PMID 16870158; conditions: cited from earlier work
PARP-1 = conditions: cited from earlier work
human PARP-1 = biological target: T1, human PARP-1 (Homo sapiens, UniProt P09874); assay: biochemical; type: biochemical; conditions: for IC50: auto-poly(ADP-ribosyl)ation, NAD+ 0.3 mM, 37°C
T1 construct: made in house
Description: (§3) Recombinant human PARP-1 and murine PARP- 2 proteins were purified as described previously. Reaction of poly(ADP-ribosyl)ation catalyzed by PARP-1 and PARP-2 was performed at optimal conditions for each enzyme. Briefly, for PARP-1: 50 mM Tris-HCl pH 8.0, 20 mM MgCl2, 150 mM NaCl, 7 mM β-mercaptoethanol, activated DNA (2 o.u.280/ml, degree of activation 25%), 300 •µM NAD^+ (0.18 •µCi [^3H]NAD^+), 37°C. The reaction was started by adding PARP-1 up to a final concentration of 0.2 μM and was stopped after 1 min, placing the reaction mixture on paper filters (Whatman-1) soaked with a 5% solution of trichloroacetic acid. For PARP-2: 50 mM Tris-HCl pH 8.0, 40 mM NaCl, 0.1 mg/ml BSA, 8 mM MgCl2, 1 mM DTT, activated DNA (2 o.u.280/ml, degree of activation 25%), 400 •µM NAD^+ (0.4 •µCi [^3H]NAD^+), 37°C. The reaction was started by adding PARP-2 up to a final concentration of 0.2 μM and was stopped after 5 min, placing the reaction mixture on the paper filters. The filters were washed four times by the 5% trichloroacetic acid, then by 90% ethanol (to remove acid), and air-dried. The quantity of radiolabel included into the acid insoluble product was registered on a scintillation counter Tri-Carb 2800 (Perkin Elmer) in a toluene scintillator. The quantity of the radiolabeled product was determined at the initial rate period.
(§4) The PARP-inhibiting activity of the synthesized compounds was evaluated in a reaction of auto- poly(ADP-ribosyl)ation at a NAD^+ concentration of 0.3 mM for PARP-1 and 0.4 mM for PARP-2. Different concentrations of the tested compounds were added to the reaction mixture before adding the enzyme. Reaction and detection of the products were performed as described above. To determine the IC50 value (concentration of the compound required to reduce the enzyme activity by 50%), the effect of different concentrations of the inhibitor on the enzyme activity was examined. Measurements were done in at least two independent experiments. IC50 values were calculated using the Origin Pro 8.0 software by nonlinear regression analysis.

murine PARP-2 = biological target: T2, murine PARP-2 (Mus musculus, UniProt O88554); assay: PARP-2 auto-poly(ADP-ribosyl)ation enzyme assay ([3H]NAD+ incorporation); type: biochemical; conditions: for IC50: auto-poly(ADP-ribosyl)ation, NAD+ 0.4 mM, 37°C
T2 construct: made in house
Description: as §3, §4

HCC1937 cells [2] = assay: Caspase-3-like activity (fluorogenic peptide substrate cleavage); type: cell-based, human; conditions: 7-methylguanine alone, 48 h
Description: as §1
as §2, with “Then, 25 μl of the suspension was added to a 96-well plate and mixed with a DEVD peptide substrate dissolved in a standard reaction buffer (100 mM HEPES, 10% sucrose, 5 mM DTT, 0.001% NP- 40, and 0.1% CHAPS, pH 7.2).” left out, “Measurements were done in at least two independent experiments.” left out

[3] = replacement of 2-oxo group by amino group

T2 sequence (O88554 whole entry): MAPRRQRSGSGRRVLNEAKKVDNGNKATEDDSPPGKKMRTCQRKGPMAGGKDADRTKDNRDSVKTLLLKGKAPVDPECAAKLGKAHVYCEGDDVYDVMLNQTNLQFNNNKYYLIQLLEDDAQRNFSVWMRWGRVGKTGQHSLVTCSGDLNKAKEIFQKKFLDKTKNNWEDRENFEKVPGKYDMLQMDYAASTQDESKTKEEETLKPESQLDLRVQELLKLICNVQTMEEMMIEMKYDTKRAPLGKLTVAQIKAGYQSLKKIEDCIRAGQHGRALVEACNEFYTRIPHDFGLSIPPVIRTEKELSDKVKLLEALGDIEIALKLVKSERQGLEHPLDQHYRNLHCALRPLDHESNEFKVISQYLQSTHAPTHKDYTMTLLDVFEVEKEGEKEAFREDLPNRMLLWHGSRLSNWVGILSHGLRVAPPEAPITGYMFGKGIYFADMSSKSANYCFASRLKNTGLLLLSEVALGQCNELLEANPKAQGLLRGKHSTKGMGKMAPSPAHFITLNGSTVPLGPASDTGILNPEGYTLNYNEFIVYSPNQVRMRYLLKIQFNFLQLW
T1 sequence (P09874 whole entry): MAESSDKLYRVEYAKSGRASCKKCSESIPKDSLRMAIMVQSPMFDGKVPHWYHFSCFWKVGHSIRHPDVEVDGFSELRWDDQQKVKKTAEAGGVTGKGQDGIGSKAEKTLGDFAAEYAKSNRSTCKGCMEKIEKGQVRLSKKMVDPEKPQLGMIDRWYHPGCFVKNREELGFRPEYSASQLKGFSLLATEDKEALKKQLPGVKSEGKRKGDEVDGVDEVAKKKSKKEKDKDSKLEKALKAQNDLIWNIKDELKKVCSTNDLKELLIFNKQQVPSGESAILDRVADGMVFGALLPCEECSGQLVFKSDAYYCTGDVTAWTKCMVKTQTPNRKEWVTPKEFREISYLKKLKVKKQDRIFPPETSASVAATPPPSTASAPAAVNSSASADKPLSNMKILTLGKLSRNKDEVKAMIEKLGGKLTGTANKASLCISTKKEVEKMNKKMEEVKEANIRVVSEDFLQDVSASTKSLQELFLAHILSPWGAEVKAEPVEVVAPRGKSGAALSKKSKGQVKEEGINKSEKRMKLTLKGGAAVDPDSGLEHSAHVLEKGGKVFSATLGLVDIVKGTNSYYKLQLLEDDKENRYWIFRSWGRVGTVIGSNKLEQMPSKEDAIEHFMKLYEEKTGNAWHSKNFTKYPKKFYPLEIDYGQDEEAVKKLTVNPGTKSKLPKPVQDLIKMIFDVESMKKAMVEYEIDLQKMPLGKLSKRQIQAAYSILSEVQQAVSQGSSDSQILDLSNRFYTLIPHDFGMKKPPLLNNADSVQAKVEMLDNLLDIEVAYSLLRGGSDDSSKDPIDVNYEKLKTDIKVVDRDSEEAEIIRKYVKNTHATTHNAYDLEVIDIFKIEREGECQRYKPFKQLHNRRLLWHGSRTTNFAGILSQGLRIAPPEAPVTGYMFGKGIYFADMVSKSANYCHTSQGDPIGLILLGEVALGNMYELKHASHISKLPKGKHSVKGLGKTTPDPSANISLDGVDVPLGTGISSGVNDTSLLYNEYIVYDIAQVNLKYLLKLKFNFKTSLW

Structure (SMILES): COc1cccc2c1C(=O)c1c(O)c3c(c(O)c1C2=O)C[C@@](O)(C(=O)CO)C[C@@H]3O[C@H]1C[C@H](N)[C@H](O)[C@H](C)O1 [doxorubicin, reference compound]
Sub-G1 population (HCC1937 cells [1]; doxorubicin 1 μM alone): 32%

Structure (SMILES): O=c1[nH]cnc2nc[nH]c12 [hypoxanthine]
PARP inhibitory effect (PARP): relatively weak inhibitory effect

Structure (SMILES): O=c1[nH]c(=O)c2nc[nH]c2[nH]1 [xanthine, reference compound]
PARP-1 inhibition (PARP-1): does not show inhibition

Structure (SMILES): Cc1c[nH]c(=O)[nH]c1=O [thymine]
PARP inhibitory effect (PARP): relatively weak inhibitory effect

IC50 (human PARP-1): 800 µM
IC50 (murine PARP-2): 160 µM
Structure (SMILES): Cn1cnc2[nH]c(=O)[nH]c(=O)c21 [7-methylxanthine, 7-Methylxanthine]
PARP-1 inhibition (PARP-1): moderate inhibitor

IC50 (human PARP-1): 230 µM
IC50 (murine PARP-2): 90 µM
Structure (SMILES): CCn1cnc2[nH]c(N)nc(=O)c21 [7-ethylguanine, 7-Ethylguanine]

Structure (SMILES): N.N.[Cl][Pt][Cl] [cisplatin, reference compound]
Sub-G1 population (HCC1937 cells [1]; cisplatin 70 μM alone): 34%

IC50 (human PARP-1): 150 µM
increase in the ability to inhibit PARP-1 compared with 7-methylxanthine (human PARP-1; [3]): 5 fold
IC50 (murine PARP-2): 50 µM
increase in the ability to inhibit PARP-2 compared with 7-methylxanthine (murine PARP-2; [3]): 3 fold
Structure (SMILES): Cn1cnc2nc(N)[nH]c(=O)c21 [7-methylguanine, 7-Methylguanine]
caspase-3 activation (HCC1937 cells [2]): no caspase-3 activation
Sub-G1 population (HCC1937 cells [1]; 7-methylguanine 150 μM alone): around 2%
cytotoxicity (HCC1937 cells [1]; at the PARP inhibitory concentration, 7-methylguanine alone): not cytotoxic

IC50 (human PARP-1): 780 µM
IC50 (murine PARP-2): 620 µM
Structure (SMILES): Cn1cnc2nc[nH]c(=O)c21 [7-methylhypoxanthine, 7-Methylhypoxanthine]
